Reference: article PMC4582818, “Identification of novel metabolic interactions controlling carbon flux from xylose to ethanol in natural and recombinant yeasts” (Biotechnology for Biofuels, 2015)

How the values were obtained:
[1] = target: T1, CtXR (Yamadazyma tenuis, UniProt O74237); assay: ligand-binding analysis by fluorescence spectroscopy; conditions: read-out: NADP(H) (R 2) / PP (R 5), UG (R 9), LG (R 10)
T1 construct: gene XYL1; xylose reductase of C. tenuis CBS4435; preparation described only in Additional file 3
T1 sequence (O74237 1-322): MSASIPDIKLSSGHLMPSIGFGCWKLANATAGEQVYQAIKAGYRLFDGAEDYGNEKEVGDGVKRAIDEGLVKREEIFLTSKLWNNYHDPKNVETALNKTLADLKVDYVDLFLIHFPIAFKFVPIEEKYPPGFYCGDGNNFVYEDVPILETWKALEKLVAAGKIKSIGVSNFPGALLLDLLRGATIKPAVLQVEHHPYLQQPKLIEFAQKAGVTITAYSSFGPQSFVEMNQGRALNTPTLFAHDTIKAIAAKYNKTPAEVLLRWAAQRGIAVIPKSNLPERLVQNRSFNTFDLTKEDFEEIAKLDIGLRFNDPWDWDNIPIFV
Description: ligand-binding analysis by fluorescence spectroscopy on CtXR

[2] = target: T2, CtG6PDH (Yamadazyma tenuis, UniProt G3B8L7); assay: enzyme kinetics, product inhibition; format: cell-based; conditions: competitive product inhibition; read-out: K i,NADPH
T2 construct: gene CANTEDRAFT_115211; native enzyme, probably in cell-free extract of CBS4435 (details only in Additional file 3)
T2 sequence (G3B8L7 1-502): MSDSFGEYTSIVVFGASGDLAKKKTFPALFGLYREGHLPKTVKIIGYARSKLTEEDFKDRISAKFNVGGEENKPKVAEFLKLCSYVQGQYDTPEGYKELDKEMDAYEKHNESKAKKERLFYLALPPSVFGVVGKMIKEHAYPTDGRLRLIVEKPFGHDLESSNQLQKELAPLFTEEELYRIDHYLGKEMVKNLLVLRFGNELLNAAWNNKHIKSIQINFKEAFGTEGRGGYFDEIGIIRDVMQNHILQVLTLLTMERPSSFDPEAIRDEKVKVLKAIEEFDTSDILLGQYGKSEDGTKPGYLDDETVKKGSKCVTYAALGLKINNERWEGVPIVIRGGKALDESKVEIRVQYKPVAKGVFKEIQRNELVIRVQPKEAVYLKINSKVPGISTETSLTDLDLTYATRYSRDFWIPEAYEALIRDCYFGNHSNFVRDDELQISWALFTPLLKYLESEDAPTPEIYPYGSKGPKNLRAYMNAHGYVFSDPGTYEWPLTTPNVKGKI
Description: enzyme kinetics, product inhibition on CtG6PDH

[3] = target: T1, CtXR; assay: steady-state kinetics; format: biochemical
Description: (§1) steady-state kinetics on CtXR

[4] = substrate: NC(=O)c1ccc[n+]([C@@H]2O[C@H](COP(=O)(O)OP(=O)(O)OC[C@H]3O[C@@H](n4cnc5c(N)ncnc54)[C@H](OP(=O)(O)O)[C@@H]3O)[C@@H](O)[C@H]2O)c1; assay: steady-state kinetics; format: biochemical, Yamadazyma tenuis; conditions: xylitol oxidation; pH 7.5; 25.0 °C; varied: cofactor
Description: as §1

[5] = substrate: NC(=O)C1=CN([C@@H]2O[C@H](COP(=O)(O)OP(=O)(O)OC[C@H]3O[C@@H](n4cnc5c(N)ncnc54)[C@H](O)[C@@H]3O)[C@@H](O)[C@H]2O)C=CC1; assay: steady-state kinetics; format: biochemical, Yamadazyma tenuis; conditions: xylose reduction; pH 7.5; 25.0 °C; varied: cofactor
Description: as §1

[6] = substrate: NC(=O)C1=CN([C@@H]2O[C@H](COP(=O)(O)OP(=O)(O)OC[C@H]3O[C@@H](n4cnc5c(N)ncnc54)[C@H](OP(=O)(O)O)[C@@H]3O)[C@@H](O)[C@H]2O)C=CC1; assay: steady-state kinetics; format: biochemical, Yamadazyma tenuis; conditions: xylose reduction; pH 7.5; 25.0 °C; varied: cofactor
Description: as §1

[7] = substrate: NC(=O)c1ccc[n+]([C@@H]2O[C@H](COP(=O)(O)OP(=O)(O)OC[C@H]3O[C@@H](n4cnc5c(N)ncnc54)[C@H](O)[C@@H]3O)[C@@H](O)[C@H]2O)c1; assay: steady-state kinetics; format: biochemical, Yamadazyma tenuis; conditions: xylitol oxidation; pH 7.5; 25.0 °C; varied: cofactor
Description: as §1

## NC(=O)c1ccc[n+]([C@@H]2O[C@H](COP(=O)(O)OP(=O)(O)OC[C@H]3O[C@@H](n4cnc5c(N)ncnc54)[C@H](OP(=O)(O)O)[C@@H]3O)[C@@H](O)[C@H]2O)c1 [NADP^+]
[1]
  Kd: 5.9 ± 0.4 µM

## NC(=O)C1=CN([C@@H]2O[C@H](COP(=O)(O)OP(=O)(O)OC[C@H]3O[C@@H](n4cnc5c(N)ncnc54)[C@H](OP(=O)(O)O)[C@@H]3O)[C@@H](O)[C@H]2O)C=CC1 [NADPH]
[2]
  Ki: 200 µM

## NC(=O)C1=CN([C@@H]2O[C@H](COP(=O)(O)OP(=O)(O)OC[C@H]3O[C@@H](n4cnc5c(N)ncnc54)[C@H](O)[C@@H]3O)[C@@H](O)[C@H]2O)C=CC1 [NADH]
[3]; dissociation constant of NADH in the rate equation, xylose reduction
  NAD(H) (R 1): 0.18 ± 0.04 mM

## NC(=O)c1ccc[n+]([C@@H]2O[C@H](COP(=O)(O)OP(=O)(O)OC[C@H]3O[C@@H](n4cnc5c(N)ncnc54)[C@H](O)[C@@H]3O)[C@@H](O)[C@H]2O)c1 [NAD^+]
[3]; read-out: NAD(H) (R 1)
  Ki: 344 ± 30 µM

B1: CtXR (Yamadazyma tenuis) (protein)
chain: MSASIPDIKLSSGHLMPSIGFGCWKLANATAGEQVYQAIKAGYRLFDGAEDYGNEKEVGDGVKRAIDEGLVKREEIFLTSKLWNNYHDPKNVETALNKTLADLKVDYVDLFLIHFPIAFKFVPIEEKYPPGFYCGDGNNFVYEDVPILETWKALEKLVAAGKIKSIGVSNFPGALLLDLLRGATIKPAVLQVEHHPYLQQPKLIEFAQKAGVTITAYSSFGPQSFVEMNQGRALNTPTLFAHDTIKAIAAKYNKTPAEVLLRWAAQRGIAVIPKSNLPERLVQNRSFNTFDLTKEDFEEIAKLDIGLRFNDPWDWDNIPIFV
notes: xylose reductase of C. tenuis CBS4435; preparation described only in Additional file 3
[4]
  Km: 8 ± 1 µM
[5]
  Km: 40 ± 10 µM
[6]
  Km: 5 ± 2 µM
[7]
  Km: 19 ± 5 µM
